Assay results as given in PubChem BioAssay AID1963441 (Molecular Pharmacology Branch, DTP, NCI, 2024).
pIC50: −log10 of the molar value. One block for each compound: values may come before it.

System: NCI-H1876 complex spheroid growth, % test/control
Assay: Anticancer human tumor NCI-H1876 cell line growth inhibition [Asc];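 further: compound exposure lasted 7 days starting three days after seeding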;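 on viability, T/C: 100% = DMSO vehicle control wells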
Conditions: for pIC50: curve of first compound; for viability, T/C: stronger effect = lower value
Summary of the method: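 Tumor cells were grown as multicellular spheroids with stromal HUVEC and mesenchymal stem cells and treated singly or in combination. Concentrations fell in half-log steps from the clinical Cmax, or from 10 microM where none was known.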

[1] = second compound 0.00316 µM, first compound 0.0316 µM
[2] = second compound 0.00316 µM, first compound 0.1 µM
[3] = second compound 0.01 µM, first compound 0.0316 µM
[4] = second compound 0.01 µM, first compound 0.1 µM
[5] = second compound 0.0316 µM, first compound 0.0316 µM
[6] = second compound 0.0316 µM, first compound 0.1 µM
[7] = second compound 0.1 µM, first compound 0.0316 µM
[8] = second compound 0.1 µM, first compound 0.1 µM
[9] = second compound 0.316 µM, first compound 0.0316 µM
[10] = second compound 0.316 µM, first compound 0.1 µM
[11] = second compound 1 µM, first compound 0.0316 µM
[12] = second compound 1 µM, first compound 0.1 µM

pIC50 (second compound 0.00949 µM): < 5.00
pIC50 (second compound 0.03 µM): < 5.00
pIC50 (second compound 0.0949 µM): < 5.00
pIC50 (second compound 0.3 µM): < 5.00
pIC50 (second compound 0.949 µM): < 5.00
pIC50 (second compound 3 µM): < 5.00
Structure (SMILES): C=CC(=O)N1CCN(c2nc(=O)n(-c3c(C)ccnc3C(C)C)c3nc(-c4c(O)cccc4F)c(F)cc23)C(C)C1 (stereo unspecified) + CCN1C(C(=O)NC23CCC(C(=O)O)(CC2)CC3)C(c2cccc(Cl)c2F)C2(C(=O)Nc3cc(Cl)ccc32)C12CCCCC2
viability, T/C (second compound 0.00949 µM, first compound 0.0316 µM): 93.5%
viability, T/C (second compound 0.00949 µM, first compound 0.1 µM): 90.4%
viability, T/C (second compound 0.00949 µM, first compound 0.316 µM): 101%
viability, T/C (second compound 0.00949 µM, first compound 1 µM): 108%
viability, T/C (second compound 0.00949 µM, first compound 3.16 µM): 118%
viability, T/C (second compound 0.00949 µM, first compound 10 µM): 106%
viability, T/C (second compound 0.03 µM, first compound 0.0316 µM): 98.2%
viability, T/C (second compound 0.03 µM, first compound 0.1 µM): 101%
viability, T/C (second compound 0.03 µM, first compound 0.316 µM): 104%
viability, T/C (second compound 0.03 µM, first compound 1 µM): 103%
viability, T/C (second compound 0.03 µM, first compound 3.16 µM): 110%
viability, T/C (second compound 0.03 µM, first compound 10 µM): 107%
viability, T/C (second compound 0.0949 µM, first compound 0.0316 µM): 96.8%
viability, T/C (second compound 0.0949 µM, first compound 0.1 µM): 93.4%
viability, T/C (second compound 0.0949 µM, first compound 0.316 µM): 107%
viability, T/C (second compound 0.0949 µM, first compound 1 µM): 106%
viability, T/C (second compound 0.0949 µM, first compound 3.16 µM): 117%
viability, T/C (second compound 0.0949 µM, first compound 10 µM): 107%
viability, T/C (second compound 0.3 µM, first compound 0.0316 µM): 103%
viability, T/C (second compound 0.3 µM, first compound 0.1 µM): 106%
viability, T/C (second compound 0.3 µM, first compound 0.316 µM): 115%
viability, T/C (second compound 0.3 µM, first compound 1 µM): 114%
viability, T/C (second compound 0.3 µM, first compound 3.16 µM): 114%
viability, T/C (second compound 0.3 µM, first compound 10 µM): 109%
viability, T/C (second compound 0.949 µM, first compound 0.0316 µM): 118%
viability, T/C (second compound 0.949 µM, first compound 0.1 µM): 115%
viability, T/C (second compound 0.949 µM, first compound 0.316 µM): 104%
viability, T/C (second compound 0.949 µM, first compound 1 µM): 114%
viability, T/C (second compound 0.949 µM, first compound 3.16 µM): 118%
viability, T/C (second compound 0.949 µM, first compound 10 µM): 112%
viability, T/C (second compound 3 µM, first compound 0.0316 µM): 112%
viability, T/C (second compound 3 µM, first compound 0.1 µM): 99.6%
viability, T/C (second compound 3 µM, first compound 0.316 µM): 96.7%
viability, T/C (second compound 3 µM, first compound 1 µM): 109%
viability, T/C (second compound 3 µM, first compound 3.16 µM): 114%
viability, T/C (second compound 3 µM, first compound 10 µM): 107%

pIC50 (second compound 0.00316 µM): < 5.00
pIC50 (second compound 0.01 µM): < 5.00
pIC50 (second compound 0.0316 µM): < 5.00
pIC50 (second compound 0.1 µM): < 5.00
pIC50 (second compound 0.316 µM): < 5.00
pIC50 (second compound 1 µM): < 5.00
Structure (SMILES): C=CC(=O)N1CCN(c2nc(=O)n(-c3c(C)ccnc3C(C)C)c3nc(-c4c(O)cccc4F)c(F)cc23)C(C)C1 (stereo unspecified) + CNC(C)C(=O)NC1CN(S(=O)(=O)c2cccc(S(=O)(=O)N3CCC4CCC(C(=O)NC(c5ccccc5)c5ccccc5)N4C(=O)C(NC(=O)C(C)NC)C3)c2)CCC2CCC(C(=O)NC(c3ccccc3)c3ccccc3)N2C1=O
viability, T/C [1]: 103%
viability, T/C [2]: 87.6%
viability, T/C (second compound 0.00316 µM, first compound 0.316 µM): 115%
viability, T/C (second compound 0.00316 µM, first compound 1 µM): 94.9%
viability, T/C (second compound 0.00316 µM, first compound 3.16 µM): 121%
viability, T/C (second compound 0.00316 µM, first compound 10 µM): 131%
viability, T/C [3]: 104%
viability, T/C [4]: 99%
viability, T/C (second compound 0.01 µM, first compound 0.316 µM): 99.1%
viability, T/C (second compound 0.01 µM, first compound 1 µM): 99.3%
viability, T/C (second compound 0.01 µM, first compound 3.16 µM): 107%
viability, T/C (second compound 0.01 µM, first compound 10 µM): 111%
viability, T/C [5]: 102%
viability, T/C [6]: 101%
viability, T/C (second compound 0.0316 µM, first compound 0.316 µM): 121%
viability, T/C (second compound 0.0316 µM, first compound 1 µM): 102%
viability, T/C (second compound 0.0316 µM, first compound 3.16 µM): 116%
viability, T/C (second compound 0.0316 µM, first compound 10 µM): 114%
viability, T/C [7]: 100%
viability, T/C [8]: 106%
viability, T/C (second compound 0.1 µM, first compound 0.316 µM): 104%
viability, T/C (second compound 0.1 µM, first compound 1 µM): 106%
viability, T/C (second compound 0.1 µM, first compound 3.16 µM): 114%
viability, T/C (second compound 0.1 µM, first compound 10 µM): 106%
viability, T/C [9]: 114%
viability, T/C [10]: 101%
viability, T/C (second compound 0.316 µM, first compound 0.316 µM): 100%
viability, T/C (second compound 0.316 µM, first compound 1 µM): 101%
viability, T/C (second compound 0.316 µM, first compound 3.16 µM): 115%
viability, T/C (second compound 0.316 µM, first compound 10 µM): 109%
viability, T/C [11]: 111%
viability, T/C [12]: 91.9%
viability, T/C (second compound 1 µM, first compound 0.316 µM): 118%
viability, T/C (second compound 1 µM, first compound 1 µM): 113%
viability, T/C (second compound 1 µM, first compound 3.16 µM): 116%
viability, T/C (second compound 1 µM, first compound 10 µM): 117%

pIC50 (second compound 0.00316 µM): < 7.00
pIC50 (second compound 0.01 µM): < 7.00
pIC50 (second compound 0.0316 µM): < 7.00
pIC50 (second compound 0.1 µM): < 7.00
pIC50 (second compound 0.316 µM): < 7.00
pIC50 (second compound 1 µM): < 7.00
Structure (SMILES): Cn1ncnc1[C@H]1c2n[nH]c(=O)c3cc(F)cc(c23)N[C@@H]1c1ccc(F)cc1 + CNC(C)C(=O)NC1CN(S(=O)(=O)c2cccc(S(=O)(=O)N3CCC4CCC(C(=O)NC(c5ccccc5)c5ccccc5)N4C(=O)C(NC(=O)C(C)NC)C3)c2)CCC2CCC(C(=O)NC(c3ccccc3)c3ccccc3)N2C1=O
viability, T/C (second compound 0.00316 µM, first compound 0.000316 µM): 72.3%
viability, T/C (second compound 0.00316 µM, first compound 0.001 µM): 63.5%
viability, T/C (second compound 0.00316 µM, first compound 0.00316 µM): 68.2%
viability, T/C (second compound 0.00316 µM, first compound 0.01 µM): 55.5%
viability, T/C [1]: 51.2%
viability, T/C [2]: 54.3%
viability, T/C (second compound 0.01 µM, first compound 0.000316 µM): 92.8%
viability, T/C (second compound 0.01 µM, first compound 0.001 µM): 103%
viability, T/C (second compound 0.01 µM, first compound 0.00316 µM): 87.6%
viability, T/C (second compound 0.01 µM, first compound 0.01 µM): 95.2%
viability, T/C [3]: 96.5%
viability, T/C [4]: 95.8%
viability, T/C (second compound 0.0316 µM, first compound 0.000316 µM): 94.8%
viability, T/C (second compound 0.0316 µM, first compound 0.001 µM): 99%
viability, T/C (second compound 0.0316 µM, first compound 0.00316 µM): 104%
viability, T/C (second compound 0.0316 µM, first compound 0.01 µM): 112%
viability, T/C [5]: 109%
viability, T/C [6]: 103%
viability, T/C (second compound 0.1 µM, first compound 0.000316 µM): 105%
viability, T/C (second compound 0.1 µM, first compound 0.001 µM): 102%
viability, T/C (second compound 0.1 µM, first compound 0.00316 µM): 97.3%
viability, T/C (second compound 0.1 µM, first compound 0.01 µM): 91.5%
viability, T/C [7]: 97.4%
viability, T/C [8]: 102%
viability, T/C (second compound 0.316 µM, first compound 0.000316 µM): 97.7%
viability, T/C (second compound 0.316 µM, first compound 0.001 µM): 96.7%
viability, T/C (second compound 0.316 µM, first compound 0.00316 µM): 93.4%
viability, T/C (second compound 0.316 µM, first compound 0.01 µM): 110%
viability, T/C [9]: 115%
viability, T/C [10]: 97.3%
viability, T/C (second compound 1 µM, first compound 0.000316 µM): 114%
viability, T/C (second compound 1 µM, first compound 0.001 µM): 99.1%
viability, T/C (second compound 1 µM, first compound 0.00316 µM): 90.1%
viability, T/C (second compound 1 µM, first compound 0.01 µM): 116%
viability, T/C [11]: 103%
viability, T/C [12]: 104%
